Data published in patent publication US7884083B2, “Immunomodulatory compositions, methods of making, and methods of use thereof” (Dynavax Technologies Corporation, priority 2002, dated 2011).

Legend:
[1] = system: human peripheral blood lymphocytes (PBMCs); test: hPBMC assay: IFN-γ and IFN-α production by human PBMCs (ELISA); format: cell-based
[2] = system: plasmacytoind dendritic cells (PDCs) of human PBMCs; test: Intracellular staining and FACS analysis of IFN-α production from PDCs; format: cell-based; details: double-staining cells as percentage of total PBMCs, 20 μg/mL oligonucleotide, 100 μg/mL PMXB, six hours
Protocol: Intracellular staining assays and FACS analysis were used to examine IFN-α production from the plasmacytoind dendritic cells (PDCs) of human PBMCs. […] For these assays, the IMC or -ISS and the polymyxin were added separately to the PBMC cell culture which contained human serum albumin. […] After the six hours, the cells were stained with a fluorescently labeled PDC marker, anti-BCDA-2 labeled with FITC, and with anti-IFN-α labeled with PE. FACS analysis of the labeled cells was performed.

[3] = system: K562 cells; test: NK cell lytic activity of stimulated PBMCs against 51Cr-loaded K562 cells; format: cell-based, human; details: 10 μg/mL IMC, 100 μg/mL PMXB, 48 hours
Protocol: IMC particulate formulations were tested for NK cell stimulatory activity. PBMCs from two donors were stimulated for 48 hours with 10 μg/mL IMC (“+ISS”) 5′-[…]-3′ (SEQ ID NO:1) with or without 100 μg/mL PMXB. The PBMCs were then assayed for lytic activity against K562 cells loaded with ^51Cr as target cells. For controls, K562 cells were cultured alone, K562 cells were lysed with Triton and K562 cells were stimulated with untreated PBMC cells. Determination of ^51CR released into culture media was used to measure the extent of target cell lysis. The presence of PMXB increased the NK cell lytic activity stimulated by the IMC alone.

[4] = system: mouse lung cells; test: Gene modulation in mouse lung after intranasal instillation (TAQMAN, relative cycle thresholds; Table 18); format: in vivo; set-up: Relative Cycle Thresholds (CTs), IFN-α2 / Relative Cycle Thresholds (CTs), BCA-1 / Relative Cycle Thresholds (CTs), IP-10 / Relative Cycle Thresholds (CTs), MIP-1b / Relative Cycle Thresholds (CTs), 12/15-lipoxg: reference not given here; details: 6 hours after intranasal instillation
Protocol: Modulation of a variety of genes in response to immunomodulatory formulations was measured in mouse lung cells.
Particulate formulations were produced by first preparing either a 1 mg/mL +ISS, 0.4% TWEEN® 85, 0.4% oleate solution or a 20 mg/mL HSA solution, then making that solution 5 mg/ml in PMXB. The formulations were allowed to stand for 24 hours at room temperature, then dialyzed using a 10 kDa membrane. Particulate formulations and +ISS alone (50 μL dose) were administered by intranasal instillation to lightly anesthetized mice (5 mice per group). Animals were sacrificed 6 hours after administration, lung tissue was surgically removed, and cell suspensions were made by homogenization of the lung tissue. cDNA was synthesized from RNA isolated from the cell suspensions, and RNA was quantitated using TAQMAN® Technology. The particulate formulations induced significant increases in the majority of the genes tested.

[5] = Donor 198, no Time given, 20 μg/ml oligonucleotide
[6] = Donor 199, no Time given, 20 μg/ml oligonucleotide
[7] = Donor 28212, Controls, 20 μg/ml oligonucleotide, 100 μg/ml polymyxin
[8] = Donor 28213, Controls, 20 μg/ml oligonucleotide, 100 μg/ml polymyxin
[9] = Donor 28232, no Time given, 20 μg/ml oligonucleotide, 100 μg/ml polymyxin
[10] = Donor 28233, no Time given, 20 μg/ml oligonucleotide, 100 μg/ml polymyxin
[11] = Donor # 9, 20 μg/ml oligonucleotide, 100 μg/ml PMXB, 24 hours
[12] = Donor # 37, 20 μg/ml oligonucleotide, 100 μg/ml PMXB, 24 hours
[13] = Donor # 86, 20 μg/ml oligonucleotide, 100 μg/ml PMXB, 24 hours
[14] = Donor # 87, 20 μg/ml oligonucleotide, 100 μg/ml PMXB, 24 hours
[15] = Donor # 88, 20 μg/ml oligonucleotide, 100 μg/ml PMXB, 24 hours
[16] = Donor # 89, 20 μg/ml oligonucleotide, 100 μg/ml PMXB, 24 hours
[17] = Donor # 90, 20 μg/ml oligonucleotide, 100 μg/ml PMXB, 24 hours
[18] = Donor # 91, 20 μg/ml oligonucleotide, 100 μg/ml PMXB, 24 hours
[19] = Donor # 94, 20 μg/ml oligonucleotide, 100 μg/ml PMXB, 24 hours
[20] = Donor # 95, 20 μg/ml oligonucleotide, 100 μg/ml PMXB, 24 hours
[21] = Mean (Table 4), Controls, 20 μg/ml oligonucleotide, 100 μg/ml polymyxin
[22] = Mean (Table 5), no Time given, 20 μg/ml oligonucleotide
[23] = Mean (Table 6), no Time given, 20 μg/ml oligonucleotide, 100 μg/ml polymyxin
[24] = Mean of donors (Table 2), 20 μg/ml oligonucleotide, 100 μg/ml PMXB, 24 hours
[25] = Table 3, Donor 1, PMXB 100 μg/ml, AMTB 10 μg/ml, serum containing medium
[26] = Table 3, Donor 2, PMXB 100 μg/ml, AMTB 10 μg/ml, serum containing medium
[27] = Table 3, Mean, PMXB 100 μg/ml, AMTB 10 μg/ml, serum containing medium
[28] = Table 9, Mean, 20 μg/ml oligonucleotide, 100 μg/ml polymyxin
[29] = Table 9, donor 149, 20 μg/ml oligonucleotide, 100 μg/ml polymyxin
[30] = Table 9, donor 208, 20 μg/ml oligonucleotide, 100 μg/ml polymyxin
[31] = Table 10, donor 1, 20 μg/ml oligonucleotide, 100 μg/ml polymyxin derivative added separately, 24 hours
[32] = Table 10, donor 2, 20 μg/ml oligonucleotide, 100 μg/ml polymyxin derivative added separately, 24 hours
[33] = Table 10, donor 3, 20 μg/ml oligonucleotide, 100 μg/ml polymyxin derivative added separately, 24 hours
[34] = Table 10, donor 4, 20 μg/ml oligonucleotide, 100 μg/ml polymyxin derivative added separately, 24 hours
[35] = Table 10, donor 5, 20 μg/ml oligonucleotide, 100 μg/ml polymyxin derivative added separately, 24 hours
[36] = Table 10, donor 6, 20 μg/ml oligonucleotide, 100 μg/ml polymyxin derivative added separately, 24 hours
[37] = Table 10, mean of 6 donors, 20 μg/ml oligonucleotide, 100 μg/ml polymyxin derivative added separately, 24 hours
[38] = Effector:Target ratio 12.5:1, donor 2

5′-TGACTGTGAACGTTCGAGATGA-3′ [+ISS]
IFN-α [1, 5]: 224 pg/mL
IFN-γ [1, 5]: 10 pg/mL
IFN-α [1, 6]: 277 pg/mL
IFN-γ [1, 6]: 167 pg/mL
IFN-α [1, 7]: 135 pg/mL
IFN-γ [1, 7]: 5 pg/mL
IFN-α [1, 8]: 109 pg/mL
IFN-γ [1, 8]: 17 pg/mL
IFN-Υ [1, 9]: 276 pg/mL
IFN-α [1, 9]: 9 pg/mL
IFN-Υ [1, 10]: 20 pg/mL
IFN-α [1, 10]: 103 pg/mL
IFN-α [1, 11]: 131 pg/mL
IFN-γ [1, 11]: 20 pg/mL
IFN-γ ([1]; Donor # 20, 20 μg/ml oligonucleotide, 100 μg/ml PMXB, 24 hours): 291 pg/mL
IFN-α [1, 12]: 70 pg/mL
IFN-γ [1, 12]: 15 pg/mL
IFN-γ ([1]; Donor # 75, 20 μg/ml oligonucleotide, 100 μg/ml PMXB, 24 hours): 22 pg/mL
IFN-α [1, 13]: 358 pg/mL
IFN-γ [1, 13]: 182 pg/mL
IFN-α [1, 14]: 212 pg/mL
IFN-γ [1, 14]: 341 pg/mL
IFN-α [1, 15]: 264 pg/mL
IFN-γ [1, 15]: 367 pg/mL
IFN-α [1, 16]: 207 pg/mL
IFN-γ [1, 16]: 100 pg/mL
IFN-α [1, 17]: 119 pg/mL
IFN-γ [1, 17]: 13 pg/mL
IFN-α [1, 18]: 0 pg/mL
IFN-γ [1, 18]: 27 pg/mL
IFN-α [1, 19]: 274 pg/mL
IFN-γ [1, 19]: 30 pg/mL
IFN-α [1, 20]: 26 pg/mL
IFN-γ [1, 20]: 6 pg/mL
IFN-γ ([1]; Donor # 96, 20 μg/ml oligonucleotide, 100 μg/ml PMXB, 24 hours): 49 pg/mL
IFN-γ ([1]; Donor # 97, 20 μg/ml oligonucleotide, 100 μg/ml PMXB, 24 hours): 23 pg/mL
IFN-α [1, 21]: 122 pg/mL
IFN-γ [1, 21]: 11 pg/mL
IFN-α [1, 22]: 250 pg/mL
IFN-γ [1, 22]: 88 pg/mL
IFN-Υ [1, 23]: 148 pg/mL
IFN-α [1, 23]: 56 pg/mL
IFN-α [1, 24]: 166 pg/mL
IFN-γ [1, 24]: 106 pg/mL
IFN-α [1, 25]: 11 pg/mL
IFN-γ [1, 25]: 29 pg/mL
IFN-α [1, 26]: 2 pg/mL
IFN-γ [1, 26]: 0 pg/mL
IFN-α [1, 27]: 6 pg/mL
IFN-γ [1, 27]: 15 pg/mL
IFN-Υ [1, 28]: 76 pg/mL
IFN-α [1, 28]: 41 pg/mL
IFN-Υ [1, 29]: 78 pg/mL
IFN-α [1, 29]: 59 pg/mL
IFN-Υ ([1]; Table 9, donor 206, 20 μg/ml oligonucleotide, 100 μg/ml polymyxin): 5 pg/mL
IFN-Υ [1, 30]: 146 pg/mL
IFN-α [1, 30]: 32 pg/mL
IFN-α ([1]; Table 9, donor 209, 20 μg/ml oligonucleotide, 100 μg/ml polymyxin): 32 pg/mL
IFN-α [1, 31]: 263 pg/mL
IFN-γ [1, 31]: 13 pg/mL
IFN-α [1, 32]: 225 pg/mL
IFN-γ [1, 32]: 3 pg/mL
IFN-α [1, 33]: 52 pg/mL
IFN-γ [1, 33]: 2 pg/mL
IFN-α [1, 34]: 52 pg/mL
IFN-γ [1, 34]: 2 pg/mL
IFN-α [1, 35]: 218 pg/mL
IFN-γ [1, 35]: 99 pg/mL
IFN-α [1, 36]: 26 pg/mL
IFN-γ [1, 36]: 14 pg/mL
IFN-α [1, 37]: 139 pg/mL
IFN-γ [1, 37]: 22 pg/mL
BCDA-2/IFN-α d.p. % ([2]; donor 1): 0.01%
BCDA-2/IFN-α d.p. % ([2]; donor 2): 0.03%
BCDA-2/IFN-α d.p. % ([2]; mean): 0.02%
51Cr released from K562 target cells, cpm1 ([3]; Effector:Target ratio 6:1, donor 1): 6935 cpm
51Cr released from K562 target cells, cpm2 [3, 38]: 8370 cpm
51Cr released from K562 target cells, mean [3, 38]: 8162 cpm
51Cr released from K562 target cells, cpm3 ([3]; Effector:Target ratio 25:1, donor 1): 8048 cpm
Relative Cycle Thresholds (CTs), 12/15-lipoxg ([4]; gene 12/15-lipoxg): 65
Relative Cycle Thresholds (CTs), BCA-1 ([4]; gene BCA-1): 5026
Relative Cycle Thresholds (CTs), CD80 ([4]; gene CD80): 205
Relative Cycle Thresholds (CTs), CD86 ([4]; gene CD86): 103
Relative Cycle Thresholds (CTs), COX-1 ([4]; gene COX-1): 2145
Relative Cycle Thresholds (CTs), COX-2 ([4]; gene COX-2): 446
Relative Cycle Thresholds (CTs), Eotaxin ([4]; gene Eotaxin): 273
Relative Cycle Thresholds (CTs), G-CSF ([4]; gene G-CSF): 92
Relative Cycle Thresholds (CTs), IFN-α2 ([4]; gene IFN-α2): 3
Relative Cycle Thresholds (CTs), IFN-γ ([4]; gene IFN-γ): 25
Relative Cycle Thresholds (CTs), IL-1a ([4]; gene IL-1a): 7523
Relative Cycle Thresholds (CTs), IL-1b ([4]; gene IL-1b): 1643
Relative Cycle Thresholds (CTs), IL-6 ([4]; gene IL-6): 755
Relative Cycle Thresholds (CTs), IL-10 ([4]; gene IL-10): 4
Relative Cycle Thresholds (CTs), IL-12p40 ([4]; gene IL-12p40): 6
Relative Cycle Thresholds (CTs), IL-23 ([4]; gene IL-23): 266
Relative Cycle Thresholds (CTs), IP-10 ([4]; gene IP-10): 23436
Relative Cycle Thresholds (CTs), LPTN ([4]; gene LPTN): 976
Relative Cycle Thresholds (CTs), MCP-1 ([4]; gene MCP-1): 5265
Relative Cycle Thresholds (CTs), MCP-3 ([4]; gene MCP-3): 3905
Relative Cycle Thresholds (CTs), MDC ([4]; gene MDC): 2869
Relative Cycle Thresholds (CTs), MIG ([4]; gene MIG): 3411
Relative Cycle Thresholds (CTs), MIP-1a ([4]; gene MIP-1a): 6156
Relative Cycle Thresholds (CTs), MIP-1b ([4]; gene MIP-1b): 12918
Relative Cycle Thresholds (CTs), MIP-2 ([4]; gene MIP-2): 1792
Relative Cycle Thresholds (CTs), MIP-3a ([4]; gene MIP-3a): 885
Relative Cycle Thresholds (CTs), MIP-3b ([4]; gene MIP-3b): 2030
Relative Cycle Thresholds (CTs), MMP-8 ([4]; gene MMP-8): 1505
Relative Cycle Thresholds (CTs), NOS2 ([4]; gene NOS2): 308
Relative Cycle Thresholds (CTs), TARC ([4]; gene TARC): 1505
Relative Cycle Thresholds (CTs), TCA-3 ([4]; gene TCA-3): 16
Relative Cycle Thresholds (CTs), TNF-α ([4]; gene TNF-α): 7170
